Test results reported in patent US11897880B2, “7,8-dihydrobenzo[e]pyrido[3,4-c]azocine-2,5(3H,6H)-dione derivatives useful as a factor XIa inhibitors” (Janssen Pharmaceutica NV, priority 2021, dated 2024).
Like-named read-outs stand apart in the source and are kept apart here.

What was measured:
Factor XIa = Factor XIa (Homo sapiens, UniProt P03951); assay: Factor XIa inhibition assay utilizing a fluorophore-quencher pair peptide substrate (FLINT); format: biochemical; details: for Ki: read-out: FXIa Ki; for IC50: read-out: FXIa IC50
Sequence of Factor XIa (P03951 388-625 limits assumed): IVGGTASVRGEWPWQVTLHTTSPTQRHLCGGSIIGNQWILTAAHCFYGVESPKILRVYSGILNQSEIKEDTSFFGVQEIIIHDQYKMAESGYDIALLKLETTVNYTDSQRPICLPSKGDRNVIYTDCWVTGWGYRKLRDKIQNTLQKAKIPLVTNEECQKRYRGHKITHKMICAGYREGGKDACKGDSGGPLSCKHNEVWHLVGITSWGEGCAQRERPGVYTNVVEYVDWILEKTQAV
Sequence of Factor XIa (P03951 19-387 partner limits assumed): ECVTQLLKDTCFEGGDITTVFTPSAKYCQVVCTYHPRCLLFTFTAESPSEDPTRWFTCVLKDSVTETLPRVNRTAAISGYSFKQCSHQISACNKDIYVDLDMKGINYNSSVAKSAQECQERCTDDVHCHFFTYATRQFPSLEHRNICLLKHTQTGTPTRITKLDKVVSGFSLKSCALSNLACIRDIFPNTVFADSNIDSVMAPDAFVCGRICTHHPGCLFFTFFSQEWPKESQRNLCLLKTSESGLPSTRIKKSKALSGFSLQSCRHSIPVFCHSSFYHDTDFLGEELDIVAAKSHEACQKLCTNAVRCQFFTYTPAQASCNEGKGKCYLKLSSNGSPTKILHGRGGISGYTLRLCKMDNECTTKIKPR
Text: Biological Example 1: Factor XIa Inhibition Assay Utilizing a Fluorophore-Quencher Pair Peptide Substrate
A fluorescence intensity (FLINT) based assay was used to monitor inhibition of Factor XIa. The peptide substrate, 5Fam-KLTRAETV-K5Tamra (purchased from New England Peptide) was chosen based on the FXI sequence. Conversion of zymogen FXI to its activated form, FXIa, occurs by proteolytic cleavage by […] at two sites, Arg146 and Arg180. The custom peptide used in this assay was based on the Arg146 cleavage site of FXI. The peptide substrate was designed with a fluorophore-quencher pair, where the fluorescence is quenched until FXIa cleaves the 8-mer peptide after the Arg residue.
The Factor XIa FLINT assay was used with the following 5Fam-KLTRAETV-K5Tamra assay buffer: 50 mM Tris, pH 7.5, 100 mM NaCl, 5 mM CaCl2), 0.1 mg/mL BSA, 0.03% CHAPS. Assay buffer was prepared by mixing all ingredients fresh. 5Fam-KLTRAETV-K5Tamra peptide substrate was first prepared at 10 mM in 100% DMSO, then diluted to 3 mM in 100% DMSO. Assay buffer was then added directly to the 3 mM stock of substrate to prepare the 30 μM 2× working concentration (15 μM final concentration). The 2× Factor XIa stock solution was prepared by diluting 6.562 μM stock in 1× assay buffer for a […].
Test compound(s) were run in an 11-point, 3-fold serial dilution with a final top compound concentration of 100 nM. Final DMSO in assay was 2%. FXIa was preincubated with compound for 30-minutes and then substrate was added to initiate the reaction. The assay was run with kinetic (KIN) reads at 5 min intervals over 30 minutes. The time course was linear using […] FXIa greater than 30 minutes. More specifically, the assay was run as follows: • 100 nL of 0.01 mM test compound was dispensed into black 384-well non-binding Greiner BioOne 784900 plate for 0.1 μM final concentration; • 5 μL of 1× assay buffer was dispensed to column 24 (low control) and 5 μL 2× Factor XIa solution was dispensed to columns 1-23 (column 23 high control); • the plate was centrifuged with a “cover” plate at 500 rpm for 1 min • the plate was pre-incubated for 30 minutes at room temperature with plate covered; • 5 μL of 2×5Fam-KLTRAETV-K5Tamra peptide substrate was dispensed into the entire plate, columns 1-24; • the plate was centrifuged with a “cover” plate at 500 rpm for 1 min; • the plate was read monitoring fluorescence intensity on the BMG PHERAStar at room temperature, using fluorescence module 485 nm/520 nm.
Percent inhibition (IC50) curves were generated per compound tested, and data was analyzed using a 4-parameter logistic fit using GeneData Screener. The relative fluorescence unit (RFU) values were normalized to percent inhibition using the following equation: % inhibition=((HC−LC)−(compound−LC)/(HC−LC))*100
where LC−low control=mean signal of no Factor XIa or 100% inhibition of Factor XIa; HC−high control=mean signal of Factor XIa+5Fam-KLTRAETV-K5Tamra peptide substrate with DMSO only.
An 11-point dose response curve for the test compound(s) was generated using GENDATA to determine IC50 value based on the following equation: Y=Bottom+(Top−Bottom)/(1+10^((log IC50−X)*HillSlope))
where Y is the % inhibition in the presence of X inhibitor concentration, Top=high control=mean signal of Factor XIa+5Fam-KLTRAETV-K5Tamra peptide substrate with DMSO only; Bottom=low control−mean signal of no Factor XIa or 100% inhibition of Factor XIa; HillSlope−Hill coefficient; and IC50=concentration of compound with 50% inhibition in relation to top/high control.
(§1) Representative compounds of formula (I) of the present invention were tested according to the procedure described in Biological Example 1 and Biological Example 2 above, with results as listed in Table 3, below.

human plasma kallikrein = human plasma kallikrein (Homo sapiens, UniProt P03952); assay: Kallikrein inhibition assay utilizing a quenched AMC peptide substrate (FLINT); format: biochemical; details: 30 min preincubation, 50 μM Z-Gly-Pro-Arg-AMC, 2 nM kallikrein
Sequence of human plasma kallikrein (P03952 391-638 limits assumed): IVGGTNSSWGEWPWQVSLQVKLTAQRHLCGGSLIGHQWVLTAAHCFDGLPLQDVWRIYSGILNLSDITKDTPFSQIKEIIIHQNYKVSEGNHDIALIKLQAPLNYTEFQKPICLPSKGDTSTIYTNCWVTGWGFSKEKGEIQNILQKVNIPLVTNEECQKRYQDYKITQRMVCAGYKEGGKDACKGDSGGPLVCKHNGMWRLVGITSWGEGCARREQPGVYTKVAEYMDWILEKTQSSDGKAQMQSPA
Sequence of human plasma kallikrein (P03952 20-390 partner limits assumed): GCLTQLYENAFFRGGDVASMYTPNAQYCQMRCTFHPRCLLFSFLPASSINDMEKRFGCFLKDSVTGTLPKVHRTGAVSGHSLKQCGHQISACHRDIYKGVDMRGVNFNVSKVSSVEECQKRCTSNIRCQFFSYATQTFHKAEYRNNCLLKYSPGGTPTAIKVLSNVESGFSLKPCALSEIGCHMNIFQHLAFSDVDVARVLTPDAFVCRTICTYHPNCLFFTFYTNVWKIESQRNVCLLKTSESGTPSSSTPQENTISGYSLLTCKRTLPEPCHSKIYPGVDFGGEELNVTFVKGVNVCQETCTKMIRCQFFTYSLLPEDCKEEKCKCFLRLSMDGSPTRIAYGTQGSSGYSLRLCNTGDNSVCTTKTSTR
Text: Biological Example 2: Kallikrein Inhibition Assay Utilizing a Quenched AMC Peptide Substrate
A fluorescence intensity (FLINT) based assay was used to monitor inhibition of human plasma kallikrein. The peptide substrate, Z-Gly-Pro-Arg-AMC (Purchased from Bachem; Catalog #1-1150) was chosen based on its relatively low KM for kallikrein which enables running the assay at lower substrate concentrations to control background fluorescence.
The Kallikrein FLINT assay was used with the following Z-Gly-Pro-Arg-AMC assay buffer: 50 mM Tris, pH 7.5, 100 mM NaCl, 5 mM CaCl2), 0.1 mg/mL BSA, 0.03% CHAPS. Assay buffer was prepared by mixing all ingredients fresh. 2× Z-Gly-Pro-Arg-AMC peptide substrate was prepared by diluting 10 mM stock into 1× assay buffer for a 100 μM working concentration (50 μM final concentration). The 2× kallikrein stock solution was prepared by diluting 14.76 μM stock in 1× assay buffer for a 4 nM working stock solution (2 nM final concentration).
Test compound(s) were run in an 11-point, 3-fold serial dilution with a final top compound concentration of 1 μM. Final DMSO in assay was 2%. Plasma kallikrein was pre-incubated for 30-minute with compound and then 50 μM substrate was added to initiate the reaction. The assay was run with kinetic (KIN) reads at 5 min intervals over 30 minutes. The time course was linear using 2 nM kallikrein greater than 30 minutes. More specifically, the assay was run as follows: • 100 nL of 0.1 mM test compound was dispensed into black 384-well non-binding Greiner BioOne 784900 plate for 1 μM final concentration; • 5 μL of 1× assay buffer was dispensed to columns 24 (low control) and 5 μL 2× human kallikrein enzyme solution was dispensed to columns 1-23 (column 23 high control); • the plate was centrifuged with a “cover” plate at 500 rpm for 1 min • the plate was pre-incubated for 30 minutes at room temperature with plate covered; • 5 μL of 2× Z-Gly-Pro-Arg-AMC peptide substrate was dispensed into the entire plate, columns 1-24; • the plate was centrifuged with a “cover” plate at 500 rpm for 1 min; the plate was read monitoring fluorescence intensity on the BMG PHERAStar at room temperature, using fluorescence module 340 nm/440 nm.
Percent inhibition (IC50) curves were generated per compound tested, and data was analyzed using a 4-parameter logistic fit using GeneData Screener. The relative fluorescence unit (RFU) values were normalized to percent inhibition using the following equation: % inhibition=((HC−LC)−(compound−LC)/(HC−LC))*100 where LC—low control=mean signal of human kallikrein enzyme or 100% inhibition of human kallikrein enzyme; HC—high control=mean signal of […]+Z-Gly-Pro-Arg-AMC peptide substrate with DMSO only.
An 11-point dose response curve for the test compound(s) was generated using GENDATA to determine IC50 value based on the following equation: Y=Bottom+(Top−Bottom)/(1+10^((log IC50−X)*HillSlope)) • where Y is the % inhibition in the presence of X inhibitor concentration, Top=high control=mean signal of human kallikrein enzyme+Z-Gly-Pro-Arg-AMC peptide substrate with DMSO only; Bottom=low control−mean signal of no human kallikrein enzyme or 100% inhibition of human kallikrein enzyme; HillSlope—Hill coefficient; and IC50=concentration of compound with 50% inhibition in relation to top/high control.
as §1

[1] = cells that print μM themselves in the nM column, same assay conditions
[2] = 30 min preincubation, 5Fam-KLTRAETV-K5Tamra substrate 15 μM final, kinetic reads

| SMILES | Ki (Factor XIa; cells that print μM themselves in the nM column) [µM] | IC50 (Factor XIa; [1]) [µM] | IC50 (human plasma kallikrein) [µM] | Ki (Factor XIa) [µM] | IC50 (Factor XIa; [2]) [µM] |
| --- | --- | --- | --- | --- | --- |
| Cn1ccc(-c2cnc(C(CC3CC3)n3cc4c(cc3=O)-c3c(ccc(Cl)c3F)CC3(CC3)NC4=O)[nH]2)cc1=O (single isomer, unassigned) [Compound 68, (R*)-11-chloro-3-(2-cyclopropyl-1-(5-(1-methyl-2-oxo-1,2-dihydropyridin-4-yl)-1H-imidazol-2-yl)ethyl)-12-fluoro-3H-spiro[benzo[e]pyrido[3,4-c]azocine-7,1′-cyclopropane]-2,5(6H,8H)-dione] | 1.12 | 2.24 | > 10 |  |  |
| Nc1ccc(-c2cnc([C@@H]3CCc4c5c(cc(=O)n43)-c3c(ccc(Cl)c3F)CC3(CC3)N(CCO)C5=O)[nH]2)c(F)n1 (single isomer, unassigned) [Compound 11, (S*)-12-(5-(6-amino-2-fluoropyridin-3-yl)-1H-imidazol-2-yl)-7-chloro-8-fluoro-2-(2-hydroxyethyl)-13,14-dihydro-2H-spiro[benzo[5,6]azocino[4,3-g]indolizine-3,1′-cyclopropane]-1,10(4H,12H)-dione] |  | 1.17 | > 10 | 0.588 |  |
| COC(=O)Nc1ccc(-c2cnc([C@H](CC3CC3)n3cc4c(cc3=O)-c3c(ccc(Cl)c3F)CC3(CC3)NC4=O)[nH]2)cc1 [Compound 61, Methyl (S)-(4-(2-(1-(11-chloro-12-fluoro-2,5-dioxo-2,5,6,8-tetrahydro-3H-spiro[benzo[e]pyrido[3,4-c]azocine-7,1′-cyclopropan]-3-yl)-2-cyclopropylethyl)-1H-imidazol-5-yl)phenyl)carbamate] |  |  | 0.12 | 0.0005 | 0.001 |
| O=C1NC2(CC2)Cc2ccc(Cl)c(F)c2-c2cc(=O)n3c(c21)CC[C@@H]3c1ncc(-c2ccc3[nH]ccc3c2)[nH]1 (single isomer, unassigned) [Compound 17, (R*)-12-(5-(1H-indol-5-yl)-1H-imidazol-2-yl)-7-chloro-8-fluoro-13,14-dihydro-2H-spiro[benzo[5,6]azocino[4,3-g]indolizine-3,1′-cyclopropane]-1,10(4H,12H)-dione] |  | 1.59 | > 10 | 0.796 |  |
| Cn1ccc(-c2cnc([C@H](CC3CC3)n3cc4c(cc3=O)-c3c(ccc(Cl)c3F)CC3(CC3)NC4=O)[nH]2)cc1=O (single isomer, unassigned) [Compound 69, (S*)-11-chloro-3-(2-cyclopropyl-1-(5-(1-methyl-2-oxo-1,2-dihydropyridin-4-yl)-1H-imidazol-2-yl)ethyl)-12-fluoro-3H-spiro[benzo[e]pyrido[3,4-c]azocine-7,1′-cyclopropane]-2,5(6H,8H)-dione] |  |  | 8.08 | 0.0541 | 0.108 |
| O=C1NC2(CC2)Cc2ccc(Cl)c(F)c2-c2cc(=O)n3c(c21)CC[C@@H]3c1ncc(-c2ccc3[nH]ncc3c2)[nH]1 (stereo in doubt) [Compound 19, (R*)-12-(5-(1H-indazol-5-yl)-1H-imidazol-2-yl)-7-chloro-8-fluoro-13,14-dihydro-2H-spiro[benzo[5,6]azocino[4,3-g]indolizine-3,1′-cyclopropane]-1,10(4H,12H)-dione] |  |  | 0.02 | 0.0005 | 0.001 |
| Nc1ccc(-c2cnc([C@H]3CCc4c5c(cc(=O)n43)-c3c(ccc(Cl)c3F)CCNC5=O)[nH]2)c(Cl)n1 (stereo in doubt) [Compound 48, (R*)-12-(5-(6-amino-2-chloropyridin-3-yl)-1H-imidazol-2-yl)-7-chloro-8-fluoro-3,4,13,14-tetrahydrobenzo[5,6]azocino[4,3-g]indolizine-1,10(2H,12H)-dione] |  |  | 0.21 | 0.0012 | 0.0023 |
| Nc1ccc(-c2cnc(C3CCc4c5c(cc(=O)n43)-c3c(ccc(Cl)c3F)-c3ccncc3NC5=O)[nH]2)c(F)n1 (single isomer, unassigned) [Compound 37, (R*)-3-(5-(6-amino-2-fluoropyridin-3-yl)-1H-imidazol-2-yl)-8-chloro-7-fluoro-2,3-dihydrobenzo[5,6]pyrido[4′,3′:7,8]azocino[4,3-g]indolizine-5,16(1H,15H)-dione] |  |  | 3.95 | ~0.0391 | ~0.078 |
| O=C1NC2(CC2)Cc2ccc(Cl)c(F)c2-c2cc(=O)n3c(c21)CC[C@H]3c1ncc(-c2ccc3[nH]ccc3c2)[nH]1 (single isomer, unassigned) [Compound 13, (S*)-12-(5-(1H-indol-5-yl)-1H-imidazol-2-yl)-7-chloro-8-fluoro-13,14-dihydro-2H-spiro[benzo[5,6]azocino[4,3-g]indolizine-3,1′-cyclopropane]-1,10(4H,12H)-dione] |  |  | 0.07 | 0.001 | 0.002 |
| Nc1ccc(-c2cnc([C@@H]3CCc4c5c(cc(=O)n43)-c3c(ccc(Cl)c3F)CC3(CC3)NC5=O)[nH]2)c(Cl)n1 [Compound 52, (S)-12-(5-(6-amino-2-chloropyridin-3-yl)-1H-imidazol-2-yl)-7-chloro-8-fluoro-13,14-dihydro-2H-spiro[benzo[5,6]azocino[4,3-g]indolizine-3,1′-cyclopropane]-1,10(4H,12H)-dione] |  |  | 0.07 | 0.0001 | 0.0002 |
